Results: patent US11969476B2, “Antibody molecule-drug conjugates and uses thereof” (priority 2020, dated 2024)
Converted amounts (≈) assume the structure as drawn. Like-named read-outs stand apart in the source and are kept apart here. Square brackets hold non-standard residues; d marks the D form. Ends that are not written are not given here. Peptide text beside a SMILES is read from it.

What was measured:
[1] = MIC in human serum (hsMIC) relative to MIC; format: cell-based; conditions: NA, no active in human serum
Protocol: In an embodiment, the MIC is determined in the presence of phosphate-buffered saline (PBS). In an embodiment, the MIC or hsMIC is determined on per ADC basis. In an embodiment, the MIC or hsMIC is determined on per payload or antimicrobial peptide basis.

[2] = Cytotoxicity to mammalian cells; conditions: human, 293T cells
Sau 29213 = assay: MIC determination (CLSI, 2-fold serial dilutions); format: cell-based, S. Aureus
Protocol: (§1) Assessment of Antimicrobial Activity. […] All plates were placed at 37° C. overnight. After 18 hours the plates were read using a mirrored plate reader and reflected incandescent light. […] Wells at and above the MIC should appear void of growth when read by eye.

P. aeruginosa BAA-2108 = system: P. aeruginosa BAA-2108; parameters: key: R = Resistant; S = Suspectible; I = Intermediate; NT = Note Tested; conditions: strain BAA-2108, isolated from human sputum; cited from earlier work
P. aeruginosa BAA-2112 = system: P. aeruginosa BAA-2112; parameters: key: R = Resistant; S = Suspectible; I = Intermediate; NT = Note Tested; conditions: strain BAA-2112, isolated from human sputum; cited from earlier work
human red blood cells [3] = system: human red blood cells
P. aeruginosa BAA-2111 = system: P. aeruginosa BAA-2111; parameters: key: R = Resistant; S = Suspectible; I = Intermediate; NT = Note Tested; conditions: strain BAA-2111, isolated from human sputum; cited from earlier work
Eco 25922 = assay: MIC determination (CLSI, 2-fold serial dilutions); format: cell-based, E. coli
Protocol: as §1

P. aeruginosa BAA-2109 = system: P. aeruginosa BAA-2109; parameters: key: R = Resistant; S = Suspectible; I = Intermediate; NT = Note Tested; conditions: strain BAA-2109, isolated from human sputum; cited from earlier work
P. aeruginosa BAA-2114 = system: P. aeruginosa BAA-2114; parameters: key: R = Resistant; S = Suspectible; I = Intermediate; NT = Note Tested; conditions: strain BAA-2114, isolated from human sputum; cited from earlier work
P. aeruginosa BAA-2113 = conditions: strain BAA-2113, isolated from human sputum; cited from earlier work
Pae 27853 = assay: MIC determination (CLSI, 2-fold serial dilutions); format: cell-based, Pseudomonas aeruginosa
Protocol: as §1

Pae 39324 = assay: MIC determination (CLSI, 2-fold serial dilutions); format: cell-based, Pseudomonas aeruginosa
Protocol: as §1

P. aeruginosa BAA-2110 = system: P. aeruginosa BAA-2110; parameters: key: R = Resistant; S = Suspectible; I = Intermediate; NT = Note Tested; conditions: strain BAA-2110, isolated from human sputum; cited from earlier work
human red blood cells [4] = assay: Red blood cell hemolysis (MLC, PLC); conditions: in words
293T = assay: Cytotoxicity to mammalian cells; conditions: in words
[5] = in words, human serum
Protocol: Assessment of Serum Stability. […] Twenty μl of each test article was placed in a 2.0 ml round bottom microfuge tube. […] Assay tubes were placed at 37° C. in a rotating rack between time-points. […] Supernatant from each tube was collected and frozen at −20° C. for analysis. Samples were harvested and processed at various time-points up to 6 hours.

P. aeruginosa = assay: MIC testing of antimicrobial peptides (screen); format: cell-based; conditions: in words
From the text: Initially, a bioinformatics-driven workflow (mine public database of AMPs (YADAMP)→cluster AMPs by properties→evaluate activity and toxicity) was utilized to select AMPs for experimental characterization to identify potent payloads with a high therapeutic index (FIG. 7A). […] To facilitate identification of AMPs for use in an ADC, a screening strategy that clustered peptides based on their underlying physicochemical properties was implemented, followed by characterization of representative members from each cluster. Here YADAMP, a database of AMPs that contains over 2,500 sequences of peptides with reported antibacterial activity, was used. Clustering was performed by utilizing a K-means algorithm using calculated properties that have been reported to be relevant to antimicrobial activity (peptide length, predicted helicity, predicted hydropathy, percentage of select amino acids [Lys, Arg, Trp, Cys, His], and charge at pH7, pH5, and pH9). […] Once potent peptides with favorable characteristics were identified, the remaining members of the corresponding clusters were then selected for experimental characterization. […]
Assessment of Antimicrobial Activity. […] After 18 hours the plates were read using a mirrored plate reader and reflected incandescent light. […] Wells at and above the MIC should appear void of growth when read by eye.

in vitro = conditions: human, Cytotox CC50
P. aeruginosa PA14 = assay: Acute (immunocompetent) lung infection model; conditions: immunocompetent mice, single intraperitoneal dose 15 mg/kg three hours post-infection, 100 hours
[6] = numbers in parentheses are molar equivalents

Molecule: CC(C)(O/N=C(\C(=O)N[C@@H]1C(=O)N2C(C(=O)[O-])=C(C[n+]3ccccc3)CS[C@H]12)c1csc(N)n1)C(=O)O [Ceftazidime]
- Human Serum hsMIC/MIC [1]: 1
- CC50 ([2]; Cytotox CC50, concentration at which 50% cytotoxicity of mammalian cells is observed): 550 µg/mL (≈ 1010 µM)
- MIC Sau 29213 (Sau 29213): 4 μg,/ml
- MIC Sau 29213, molar equivalents (Sau 29213; [6]): (7.3)
- antibiotic resistance phenotype (P. aeruginosa BAA-2108): S
- antibiotic resistance phenotype (P. aeruginosa BAA-2112): S
- Hemolysis MLC/MIC (human red blood cells [3]): 16
- Hemolysis PLC/MIC (human red blood cells [3]): 8
- antibiotic resistance phenotype (P. aeruginosa BAA-2111): S
- MIC Eco 25922 (Eco 25922): 0.25 μg,/ml
- MIC Eco 25922, molar equivalents (Eco 25922; [6]): (0.5)
- antibiotic resistance phenotype (P. aeruginosa BAA-2109): S
- antibiotic resistance phenotype (P. aeruginosa BAA-2114): S
- antibiotic resistance phenotype (P. aeruginosa BAA-2113): I/R
- MIC Pae 27853 (Pae 27853): 1 μg,/ml
- MIC Pae 27853, molar equivalents (Pae 27853; [6]): (1.8)
- MIC Pae 39324 (Pae 39324): 1 μg,/ml
- MIC Pae 39324, molar equivalents (Pae 39324; [6]): (1.8)
- antibiotic resistance phenotype (P. aeruginosa BAA-2110): S

Molecule: CC[C@@H](C)[C@@H](NC(=O)[C@H](NC(=O)[C@@H](CCCNC(=N)N)NC(=O)[C@H]1CCCN1C(=O)[C@@H](CCCCN)NC(=O)[C@@H](CCCCN)NC(=O)[C@@H](Cc1ccccc1)NC(=O)[C@@H](Cc1ccccc1)NC(=O)[C@@H](CCC(=O)O)NC(=O)[C@@H](CCCCN)NC(=O)[C@@H](C)NC(=O)[C@@H](CCCNC(=N)N)NC(=O)[C@@H](CCCCN)NC(=O)[C@@H](CCCCN)NC(=O)[C@H](NC(=O)[C@@H](CO)NC(=O)[C@@H](CCCCN)NC(=O)[C@@H](CCCCN)NC(=O)[C@@H](CC(C)C)NC(=O)[C@@H](CCCCN)NC(=O)[C@@H](CCCNC(=N)N)NC(=O)[C@@H](Cc1ccccc1)NC(=O)[C@@H](Cc1ccccc1)NC(=O)[C@@H](CCCCN)NC(=O)CNC(=O)CNC(=O)CN)C(C)C)C(C)C)C(=O)NCC(=O)N[C@@H](C(=O)N[C@H](CO)C(=O)N[C@@H](C(=O)N1CCC[C@@H]1C(=O)N[C@H](Cc1ccccc1)C(=O)O)[C@H](C)CC)C(C)C [Peptide D297] (H-GGG[dK][dF][dF][dR][dK][dL][dK][dK][dS][dV][dK][dK][dR][dA][dK][dE][dF][dF][dK][dK][dP][dR][dV][dI]G[dV][dS][dI][dP][dF]-OH)
- hemolytic activity (human red blood cells [4]): low hemolytic and cytotoxic activity
- cytotoxic activity against mammalian cells (293T): low hemolytic and cytotoxic activity
- serum stability [5]: stable in serum
- serum stability ([5]; listed as (D)-P297): more stable than (L)-P297

Molecule: GGGHTASDAAAAAALTAANAAAAAAASMA [Peptide P292]
- CC50 [2]: 250 µg/mL
- MIC Sau 29213 (Sau 29213): >128 μg,/ml
- MIC Eco 25922 (Eco 25922): >128 μg,/ml
- MIC Pae 27853 (Pae 27853): >128 μg,/ml
- MIC Pae 39324 (Pae 39324): >128 μg,/ml

Molecule: GGGKLLRKLKKSVKKRAKELLKKPRVIGVSIPL [Peptide P369]
- potency against P. aeruginosa (P. aeruginosa): more potent peptide

Molecule: GGGRGLRRLGRKIAHGVKKYGPTVLRIIKKYG [Peptide P294]
- CC50 (in vitro): 120 µg/mL

Molecule: cathelicidin-BF
- hemolytic activity (human red blood cells [4]): low hemolytic activity
- cytotoxic activity against mammalian cells (293T): inability to kill mammalian cells
- potency against P. aeruginosa (P. aeruginosa): potent MIC values against multiple P. aeruginosa strains

B1: actoxumab-D297: sham-conjugate prepared using a non-P. aeruginosa targeting antibody (actoxumab) (conjugate, chains of the INN, looked up)
VH: QVQLVESGGGVVQPGRSLRLSCAASGFSFSNYGMHWVRQAPGKGLEWVALIWYDGSNEDYTDSVKGRFTISRDNSKNTLYLQMNSLRAEDTAVYYCARWGMVRGVIDVFDIWGQGTVVTVSS
VL: DIQMTQSPSSVSASVGDRVTITCRASQGISSWLAWYQHKPGKAPKLLIYAASSLQSGVPSRFSGSGSGTDFTLTISSLQPEDFATYYCQQANSFPWTFGQGTKVEIK
modifications: D297 payload; sham conjugate
- survival (P. aeruginosa PA14): no survival benefit
